Each compound was assayed against Recombinant human PDK1 enzyme (aa 52-556) (Homo sapiens (Human), UniProt O15530) (assay: PDK1 kinase assay). Conditions: 25 μM ATP solution with gamma-P33-ATP, PDKtide substrate, 90 min at RT.
Assay type: biochemical
Procedure: The activity of the compounds according to the invention on the kinase PDK1 which inhibits the signal transduction pathway is determined in an in vitro kinase assay with recombinantly prepared protein:
Recombinant human PDK1 enzyme (aa 52-556) linked at its N-terminal end to His6 is isolated from baculovirus-infected insect cells. Purified enzyme may be obtained for example from the University of Dundee, Scotland. The following components are combined in a well of a 96-well round-based dish (Greiner bio-one, No. 650101): • 1. 15 μL of compound to be tested in varying concentrations (e.g. starting at 10 μM, and diluted in steps of 1:5) in APT buffer (50 mM Tris/Cl pH7.5; 0.05% β-mercaptoethanol; 10 mM Mg-acetate; 0.0166% Tween 20; 3.33% DMSO) • 2. 15 μL His6-PDK1 (aa 52-556) 3.33 ng/well) and PDKtide (KTFCGTPEYLAPEVRRE […]), synthesised by Pepceuticals Limited, Nottingham, United Kingdom; 25 μM final concentration); His6-PDK1 and PDKtide are together diluted accordingly in assay buffer (50 mM tris pH 7.5, 0.05% β-mercaptoethanol, 10 mM Mg-acetate); PDKtide is present in this mixture as an 83.3 μM solution. These 30 μl are routinely incubated for 30 min at RT. • 3. 20 μL ATP solution (25 μM ATP with 1.0 μCi/well gamma-P33-ATP). The final concentration of Tween 20 is 0.005%.
The reaction is started by adding the ATP solution and the mixture is incubated for 90 min at RT. At the start of the reaction the dishes are shaken gently. The reaction is stopped by the addition of 50 μL/well of 500 mM phosphoric acid (H3PO4) and incubated for about 20 min at RT. The precipitate is transferred by harvesting onto filter plates (96-well microtitre filter plate: UniFilter GF/C; Perkin Elmer; No. 6005174), then washed 6 times with 50 mM H3PO4 and dried at 60° C. Then the plate is stuck down with sealing tape, 25 μL/well of scintillation solution (Microscint 0; Perkin Elmer; No. 6013611) are added and the amount of P33 precipitated is measured using the Wallac Betacounter. The measured data are evaluated using Graphpad Prism software.

Chain of Recombinant human PDK1 enzyme (aa 52-556) (O15530 52-556): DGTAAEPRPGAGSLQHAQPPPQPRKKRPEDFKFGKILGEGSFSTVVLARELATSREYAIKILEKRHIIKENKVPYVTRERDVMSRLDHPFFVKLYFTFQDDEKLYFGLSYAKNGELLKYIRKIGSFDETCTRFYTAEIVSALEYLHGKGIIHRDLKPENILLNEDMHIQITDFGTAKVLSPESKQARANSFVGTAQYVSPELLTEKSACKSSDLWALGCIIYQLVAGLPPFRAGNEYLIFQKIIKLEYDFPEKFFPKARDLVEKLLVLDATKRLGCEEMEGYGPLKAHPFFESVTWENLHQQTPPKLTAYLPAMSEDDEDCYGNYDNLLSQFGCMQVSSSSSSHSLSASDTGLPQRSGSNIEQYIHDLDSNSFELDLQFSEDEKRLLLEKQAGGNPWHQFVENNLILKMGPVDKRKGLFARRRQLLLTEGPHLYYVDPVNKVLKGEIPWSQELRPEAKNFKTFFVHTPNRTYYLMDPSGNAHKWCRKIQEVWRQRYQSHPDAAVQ

Row | Structure (SMILES) | IC50 [nM]
1 | Cc1nc2cnc3ccc(C#CCNC(=O)c4cccn([C@@H](C)c5ccc(F)c(F)c5)c4=O)cc3c2n1[C@H]1CC[C@@H](N(C)C)CC1 [III-5] | 1
2 | Cc1nc2cnc3ccc(C#CCNC(=O)c4cccn([C@@H](C)c5ccc(F)c(F)c5)c4=O)cc3c2n1C1CCN(C)CC1 [III-6] | 2
3 | Cc1nc2cnc3ccc(C#CCNC(=O)c4cc(Cl)nn(Cc5ccc(F)c(F)c5)c4=O)cc3c2n1CCc1ccccc1 [III-7] | 7
4 | O=C(NCC#Cc1ccc2ncc3ncn(C4CCNCC4)c3c2c1)c1cccn([C@H](CO)c2ccccc2)c1=O [III-8] | 2010
5 | CN(C)CCn1cnc2cnc3ccc(C#CCNC(=O)c4cccn(Cc5ccccc5)c4=O)cc3c21 [III-10] | 277
6 | O=C(NCC#Cc1ccc2ncc3ncn(CCO)c3c2c1)c1cccn(Cc2ccc(F)c(F)c2)c1=O [III-11] | 18
7 | O=C(NCC#Cc1ccc2ncc3ncn(CCO)c3c2c1)c1cccn(Cc2ccccc2)c1=O [III-12] | 68
8 | Cc1nc2cnc3ccc(C#CCNC(=O)c4cncn(Cc5ccc(F)c(F)c5)c4=O)cc3c2n1CCN(C)C [III-13] | 53
9 | CN1CCC(n2cnc3cnc4ccc(C#CCNC(=O)c5cc(Cl)nn(Cc6ccc(F)c(F)c6)c5=O)cc4c32)CC1 [III-14] | 1
10 | CN1CC[C@@H](n2cnc3cnc4ccc(C#CCNC(=O)c5cccn(Cc6ccc(F)c(F)c6)c5=O)cc4c32)C1 [III-15] | 20
11 | CN1CC[C@H](n2cnc3cnc4ccc(C#CCNC(=O)c5cc(Cl)nn(Cc6ccc(F)c(F)c6)c5=O)cc4c32)C1 [III-16] | 11
12 | CN1CCC[C@@H](n2cnc3cnc4ccc(C#CCNC(=O)c5cc(Cl)nn(Cc6ccc(F)c(F)c6)c5=O)cc4c32)C1 [III-18] | 787
13 | Cc1c(C(=O)NCC#Cc2ccc3ncc4ncn(C5CCN(C(C)C)CC5)c4c3c2)c(=O)n(Cc2ccc(F)c(F)c2)n1C [III-19] | 45
14 | CCN1CCC(n2cnc3cnc4ccc(C#CCNC(=O)c5c(C)n(C)n(Cc6ccc(F)c(F)c6)c5=O)cc4c32)CC1 [III-20] | 32
15 | Cc1nc2cnc3ccc(C#CCNC(=O)c4c(C)n(C)n(Cc5ccc(F)c(F)c5)c4=O)cc3c2n1C1CCOCC1 [III-21] | 5
16 | O=C(NCC#Cc1ccc2ncc3ncn(C4CCOC4)c3c2c1)c1cccn([C@@H](CO)c2cccc(F)c2)c1=O (stereo partly shown) [III-22] | 7
17 | Cc1nc2cnc3ccc(C#CCNC(=O)c4cccn([C@@H](C)c5ccc(F)c(F)c5)c4=O)cc3c2n1[C@H]1CC[C@H](N(C)C)CC1 [III-23] | 1
18 | Cc1nc2cnc3ccc(C#CCNC(=O)c4cccn([C@@H](CO)c5cccc(F)c5)c4=O)cc3c2n1[C@H]1CC[C@H](N(C)C)CC1 [III-24] | 3
19 | Cc1nc2cnc3ccc(C#CCNC(=O)c4cccn([C@@H](CO)c5cccc(F)c5)c4=O)cc3c2n1[C@H]1CC[C@@H](N(C)C)CC1 [III-25] | 4
20 | CN(C)[C@H]1CC[C@H](n2cnc3cnc4ccc(C#CCNC(=O)c5cccn([C@@H](CO)c6cccc(F)c6)c5=O)cc4c32)CC1 [III-26] | 1
21 | CN(C)[C@H]1CC[C@@H](n2cnc3cnc4ccc(C#CCNC(=O)c5cccn([C@@H](CO)c6cccc(F)c6)c5=O)cc4c32)CC1 [III-27] | 3
22 | Cc1nc2cnc3ccc(C#CCNC(=O)c4cncn(Cc5ccc(F)c(F)c5)c4=O)cc3c2n1C1CCCOC1 (stereo not shown) [III-28] | 2
23 | NC[C@@H](c1ccccc1)n1cccc(C(=O)NCC#Cc2ccc3ncc4ncn(C5CCOC5)c4c3c2)c1=O (stereo partly shown) [III-29] | 681
24 | Cn1cnc2cnc3ccc(C#CCNC(=O)c4cncn(Cc5ccc(F)c(F)c5)c4=O)cc3c21 [III-30] | 5
25 | CCn1cnc2cnc3ccc(C#CCNC(=O)c4cncn(Cc5ccc(F)c(F)c5)c4=O)cc3c21 [III-31] | 1
26 | CC(C)n1cnc2cnc3ccc(C#CCNC(=O)c4cncn(Cc5ccc(F)c(F)c5)c4=O)cc3c21 [III-32] | 2
27 | CCn1c(C)nc2cnc3ccc(C#CCNC(=O)c4cncn(Cc5ccc(F)c(F)c5)c4=O)cc3c21 [III-33] | 2
28 | Cc1nc2cnc3ccc(C#CCNC(=O)c4cncn(Cc5ccc(F)c(F)c5)c4=O)cc3c2n1C [III-34] | 8
